Several values for one entry are separate records, joined by “and”; a condition that tells them apart may be missing. Equal entries are not always repeated.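 Each compound was tested at five concentrations against cells in 96-well plates for 48 hours. GI50 marks 50% less growth. TGI: total growth inhibition.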

The test system of the first assay is 786-0 renal. Description: NCI anticancer screen, dose series, 48 h.
In the case of `COc1ccc(-c2cn(-c3cc(OC)c(OC)c(OC)c3)c(SCc3ccccc3)n2)cc1OC`, the GI50 is more than 100 µM and the TGI is more than 100 µM.

Turning to `COc1c(C)c2c(c(O)c1C/C=C(\C)CCC(=O)O)C(=O)OC2`, the GI50 is 0.326 µM and the TGI was more than 100 µM.

Turning to `Cc1cc(O)c(C(C)C)cc1S(=O)(=O)O` (tested in a mixture with another compound), the GI50 was 0.586 µM.

On to `COc1cc(C[C@H]2c3cc(OC)c(OC)cc3CCN2C)c(Oc2cc3c(cc2OC)-c2c(OC)c(OC)cc4c2[C@H](C3)N(C)CC4)cc1OC`, for which the GI50 was 8.97 µM; the TGI was 14.1 µM and 21.9 µM.

For the molecule `COC(=O)C1(C)CCC(c2ccc(C)cc2)=C(CC(=O)O)C1` (stereo not given), the TGI is more than 100 µM.

For `CCN(CC)CCCC(C)Nc1ccnc2cc(Oc3ccccc3)ccc12` (stereo not given), the GI50 is 4.53 µM and 5.09 µM; the TGI is 11.6 µM and 17.4 µM.

For `C=C1CCC2C3(C)COC(c4ccc(N(C)C)cc4)OC3CCC2(C)C1C/C=C1/C(=O)OCC1O` (stereo not given), the GI50 was 10.5 µM and the TGI worked out at 25.3 µM.

Molecule `COc1cc(OC(=O)c2ccccc2)cc2c1C(=O)C=CC2=O` showed a TGI of 18.9 µM.

Consider `CC/C=C1/C(=O)C=C[C@@H]1C/C=C\CCCC(=O)OC`, for which the GI50 is 2.56 µM and the TGI was 6.59 µM.

For `CCN(CC)CCCCNc1c2ccccc2[n+](C)c2c1[nH]c1ccccc12`, the GI50 was 1.29 µM and the TGI is more than 26 µM.

Take `COc1ccc(C(=O)c2cc(OC)c(OC)c(OC)c2)cc1OC(=O)CCl`: the GI50 was 0.554 µM and the TGI was more than 100 µM.

Consider `CN[C@@H](C)C(=O)N[C@H](C(=O)N1CCC[C@H]1C(=O)Nc1snnc1-c1ccccc1)C1CCCCC1`, for which the GI50 is 62.8 µM and the TGI is more than 100 µM.

For the molecule `c1ccc2[nH]c(-c3ccc(-c4nccc5c4[nH]c4ccccc45)cc3)nc2c1`, the GI50 is 2.24 µM and the TGI was determined as 6.3 µM.

In turn, `O=C(O)CNC(=O)c1ccc(-c2ccccc2)cc1` displayed a TGI of more than 100 µM.

Turning to `COc1cnc2c(c1)C(=O)c1c-2n(CCCn2ccnc2)c(=O)c2cc(F)ccc12`, the GI50 was 0.0131 µM and the TGI is 0.0563 µM.

In the case of `COc1ccc2cc(C(=O)/C=C/c3ccc(Cl)cc3Cl)ccc2c1`, the GI50 was 8.13 µM and the TGI came to 24.3 µM.

As to `CC(=O)OCC1OC(n2cnc(C(N)=S)c2N)C(OC(C)=O)C1OC(C)=O` (stereo not given), the TGI was more than 100 µM.

The next assay relates to K-562 leukemia. Description: NCI anticancer screen, dose series, 48 h.
For `COc1ccc(-c2cn(-c3cc(OC)c(OC)c(OC)c3)c(SCc3ccccc3)n2)cc1OC`, the GI50 was more than 100 µM and the TGI is more than 100 µM.

For the molecule `COc1c(C)c2c(c(O)c1C/C=C(\C)CCC(=O)O)C(=O)OC2`, the GI50 is 0.123 µM and the TGI was more than 100 µM.

With `Cc1cc(O)c(C(C)C)cc1S(=O)(=O)O` (tested in a mixture with another compound), the GI50 was 0.375 µM.

Regarding `COc1cc(C[C@H]2c3cc(OC)c(OC)cc3CCN2C)c(Oc2cc3c(cc2OC)-c2c(OC)c(OC)cc4c2[C@H](C3)N(C)CC4)cc1OC`, the GI50 was 1.49 µM; the TGI is 15.6 µM and 5.4 µM.

`COC(=O)C1(C)CCC(c2ccc(C)cc2)=C(CC(=O)O)C1` (stereo not given): the TGI is more than 100 µM.

With `CCN(CC)CCCC(C)Nc1ccnc2cc(Oc3ccccc3)ccc12` (stereo not given), the GI50 is 1.87 µM and 2.56 µM; the TGI was 4.88 µM and 7.92 µM.

Turning to `C=C1CCC2C3(C)COC(c4ccc(N(C)C)cc4)OC3CCC2(C)C1C/C=C1/C(=O)OCC1O` (stereo not given), the GI50 is 1.22 µM and the TGI was 3.37 µM.

The molecule `COc1cc(OC(=O)c2ccccc2)cc2c1C(=O)C=CC2=O` came in with a TGI of 5.36 µM.

As to `CC/C=C1/C(=O)C=C[C@@H]1C/C=C\CCCC(=O)OC`, the GI50 is 0.767 µM and the TGI is more than 100 µM.

Turning to `CCN(CC)CCCCNc1c2ccccc2[n+](C)c2c1[nH]c1ccccc12`, the GI50 is 0.379 µM and the TGI was 3.9 µM.

Regarding `COc1ccc(C(=O)c2cc(OC)c(OC)c(OC)c2)cc1OC(=O)CCl`, the GI50 is less than 0.0123 µM and the TGI was more than 100 µM.

As to `CN[C@@H](C)C(=O)N[C@H](C(=O)N1CCC[C@H]1C(=O)Nc1snnc1-c1ccccc1)C1CCCCC1`, the GI50 is 24.4 µM and the TGI came to 57.7 µM.

Regarding `c1ccc2[nH]c(-c3ccc(-c4nccc5c4[nH]c4ccccc45)cc3)nc2c1`, the GI50 was 2.34 µM and the TGI is 5.47 µM.

In turn, `O=C(O)CNC(=O)c1ccc(-c2ccccc2)cc1` showed a TGI of more than 100 µM.

`COc1ccc2cc(C(=O)/C=C/c3ccc(Cl)cc3Cl)ccc2c1`: the GI50 is 2.53 µM and the TGI was 14.5 µM.

In the next assay the test system is MALME-3M melanoma. As to the kind of experiment: NCI anticancer screen, dose series, 48 h.
As to `COc1ccc(-c2cn(-c3cc(OC)c(OC)c(OC)c3)c(SCc3ccccc3)n2)cc1OC`, the GI50 was more than 100 µM and the TGI was more than 100 µM.

With `COc1c(C)c2c(c(O)c1C/C=C(\C)CCC(=O)O)C(=O)OC2`, the GI50 is 0.714 µM and the TGI was more than 100 µM.

Consider `Cc1cc(O)c(C(C)C)cc1S(=O)(=O)O` (tested in a mixture with another compound), for which the GI50 is 0.774 µM.

Take `COc1cc(C[C@H]2c3cc(OC)c(OC)cc3CCN2C)c(Oc2cc3c(cc2OC)-c2c(OC)c(OC)cc4c2[C@H](C3)N(C)CC4)cc1OC`: the GI50 was 5.39 µM; the TGI is 17 µM and 10.2 µM.

On to `COC(=O)C1(C)CCC(c2ccc(C)cc2)=C(CC(=O)O)C1` (stereo not given), for which the TGI is more than 100 µM.

`CCN(CC)CCCC(C)Nc1ccnc2cc(Oc3ccccc3)ccc12` (stereo not given): the GI50 was 6.03 µM and 2.29 µM; the TGI was 12.3 µM and 4.47 µM.

Consider `C=C1CCC2C3(C)COC(c4ccc(N(C)C)cc4)OC3CCC2(C)C1C/C=C1/C(=O)OCC1O` (stereo not given), for which the GI50 is 7.83 µM and the TGI turned out to be 22.2 µM.

Take `COc1cc(OC(=O)c2ccccc2)cc2c1C(=O)C=CC2=O`: the TGI came out at 27 µM.

Consider `CC/C=C1/C(=O)C=C[C@@H]1C/C=C\CCCC(=O)OC`, for which the GI50 is 2.92 µM and the TGI was found to be 9.06 µM.
